“Also recorded” adds a separate entry of the source.
Experiments:
MCF7-LCN2 cells = assay: Colony formation assay, MCF7-LCN2 cells; assay type: cell-based, human; conditions: vs untreated cells
Procedure: (§1) Ectopic LCN2 expression was performed in breast cancer MCF7 cells. Human LCN2 open reading frame (LCN2ORF) (RC207685, OriGene, Rockville, MD) or empty vector pCMV6-Entry (MCF7-EV) (PS100001, OriGene, Rockville, MD was stable transfected into MCF7 cells. MCF7 cells (4.0×10^4 cells/mL) were seeded in 6-well plates and incubated at 37° C. Twenty-four hours later, 5 μg of LCN2-ORF were mixed with Lipofectamine 2000 RNAiMax transfection reagent (Life Technologies) at a 1:1 (v/v) (plasmid: transfection reagent) in serum and antibiotic-free Opti-MEM medium (Life Technologies) and incubated at 37° C. Six hours later medium was replaced with MCF7 culture media and incubated at 37° C. Forty-eight hours later the antibiotic neomycin was added at a final concentration of 1.8 mg/mL for the selection of transduced MCF7 cells. After 2-3 weeks, independent colonies were picked and cultured separately as independent clones.
(§2) For cell viability, SUM149 (5.0×10^4 cells/mL) were seeded in 96-well plates. Twenty-four hours later, cells were treated with serial dilutions (0.01 μM, 0.1 μM, 1.0 μM, 10 μM, and 100 μM, final concentrations) of the LCN2 inhibitors. Seventy-two hours after treatment, cell viability was performed as above described, taking the DMSO (1%) treated OD values as the normalization control. For colony formation assays, SUM149 cells (5.0×10^4 cells/mL), MCF7 (4.5×10^4 cells/mL), MCF7-LCN2 (4.5×10^4 cells/mL), or MCF7-EV (4.5×10^4 cells/mL) were seeded into 24-well plates and incubated at 37° C. Twenty-four hours later, LCN2 inhibitors bought to Asinex corporation (North chestnut, NC) were dissolved in DMSO (0.2%) and added to the cells at 10 μM, 1 μM, and 0.1 μM (final concentrations). NT cells and DMSO (0.2%) treated cells were used as controls. SUM149 (500 cells) and MCF7 (3,000 cells) cells were seeded in 6-well plates per treatment for colony formation assays.

SUM149 cells [1] = assay: Cell viability, Alamar Blue, SUM149 cells; assay type: cell-based; conditions: Homo sapiens, 72 hours, vs DMSO, read-out: reduction of cell viability
Procedure: MDA-IBC3 cells (5.5×10^4 cells/mL) or SUM149 (5.0×10^4 cells/mL) were seeded in 96-well plates. Twenty-four hours later, cells were transiently transfected with serial dilutions of LCN2-siRNA and NC-siRNA (12.5 nM, 25 nM, 50 nM, and 100 nM final concentrations) with Lipofectamine 2000 RNAiMax. Seventy-two hours after transfection, the medium was removed, and cell viability was measured using Alamar blue dye (Invitrogen, CA, USA) as previously described by. Optical density (OD) values were obtained spectrophotometrically in a plate reader (Bio-Rad) after 3 hours of dye incubation. In all cases, percentages of cell viability were obtained after blank OD subtraction, taking the untreated cells values as a normalization control.
For cell viability, SUM149 (5.0×10^4 cells/mL) were seeded in 96-well plates. Twenty-four hours later, cells were treated with serial dilutions (0.01 μM, 0.1 μM, 1.0 μM, 10 μM, and 100 μM, final concentrations) of the LCN2 inhibitors. Seventy-two hours after treatment, cell viability was performed as above described, taking the DMSO (1%) treated OD values as the normalization control. For colony formation assays, SUM149 cells (5.0×10^4 cells/mL), MCF7 (4.5×10^4 cells/mL), MCF7-LCN2 (4.5×10^4 cells/mL), or MCF7-EV (4.5×10^4 cells/mL) were seeded into 24-well plates and incubated at 37° C. […]

p-Akt = assay: Akt/p-Akt measurements by Western blot; assay type: cell-based, human; conditions: SUM149 cells; for total Akt protein levels: all doses and time-points tested
Procedure: Cell lysates were collected on ice using lysis buffer (1% Triton X, 150 mM NaCl, 25 mM Tris HCl,0.4 mM NaVO4, 0.4 mM NaF and protease inhibitor cocktail from Sigma, St. Louis, MO, USA) and vortexed periodically for 30 min. Lysates were centrifuged for 15 min at 4° C., and supernatants were collected. Total protein concentrations were determined using Bio-Rad DC Protein Assay reagents (Bio-Rad) following the manufacturer's protocol. Equal amounts of protein for each sample (40 μg to 50 μg per lane) were separated by SDS-PAGE, blotted onto nitrocellulose membranes, blocked with 5% non-fat milk, and probed with the appropriate dilution of the corresponding primary antibody. Once incubated with the primary antibody, membranes were rinsed and incubated with the corresponding HRP-conjugated secondary antibody. Bound antibodies were detected using an enhanced chemiluminescence substrate followed by autoradiography using a FluorChem™ 8900 (Alpha Innotech Corporation, San Leandro, CA, USA). Primary antibodies: anti-LCN2 (AF1757) (24 kDa), (R&D System, MN, USA); Caspase 9 (9502) (47 kDa), Caspase 3 (9665) (35 kDa), Cleaved Caspase 9 (20750) (37 kDa), Cleaved Caspase 3 (9664) (17/19 kDa), PARP-1 (46D11) (89,116 kDa), CDK4 (D9G3D) (30 kDa), CDK6 (DCS83) (36 kDa), Cyclin E1 (HE12) (48 kDa), Cyclin E2 (4132) (48 kDa), p21/Waf1/Cip1 (12D1) (21 kDa), p27/Kip1 (D69C12) (27 kDa), Akt (4685) (60 kDa), p-Akt (Ser473) (4060) (60 kDa) (Cell Signaling, Danvers, MA, USA); anti-β-actin (42 kDa) (Sigma). Secondary antibodies: anti-goat IgG horseradish peroxidase (HRP) (HAF 109) (R&D Systems), anti-mouse and anti-rabbit IgG (HRP) (Cell Signaling).
SUM149 cells (5.0×10^4 cells/mL) were seeded in 10-cm Petri plates and incubated at 37° C. Twenty-four hours later, cells were treated with the LCN2 inhibitors ZINC00784494 and ZINC00640089 at 10 μM and 1 μM concentrations. NT and DMSO (0.2% final concentration) treated cells were used as controls. Cell pellets of each condition were collected at 15 minutes, 1 hour, and 24 hours after drug treatment. The p-AKT Akt and Akt protein levels were assessed by Western blots as above described.

SUM149 cells [2] = assay: Colony formation (clonogenic) assay, SUM149 cells; assay type: cell-based, human; conditions: vs DMSO
Procedure: Cell growth was assessed by colony formation assays: MDA-IBC3 cells (5.5×10^4 cells/mL) or SUM149 (5.0×10^4 cells/mL) were seeded into 6-well plates. Twenty-four hours later, siRNAs were added to the cells. Twenty-four hours (MDA-IBC3 cells) or forty-eight hours (SUM149) after transfection, 1500 cells for MDA-IBC3 and 1000 cells for SUM149 were seeded into 10-cm Petri dishes containing Hams F-12 (10% FBS, 0.1% antibiotic/antimycotic solution, 0.001% insulin from bovine pancreas, and 0.005% hydrocortisone), and incubated at 37° C. Twelve days (SUM149 cells) or 19 days (MDA-IBC3 cells) later, colony-forming cells were stained with 0.5% crystal violet solution. Colonies (with at least 50 cells) were counted under a light microscope (Olympus CKX41) in five random fields with a total magnification of 10×.
as §2

Caspase-3 = Caspase-3 fluorometric activity assay; assay type: cell-based, human; conditions: positive control, 0.5 nM; cell line not given
Procedure: Caspase-3 activity was assessed using a caspase-3/CPP32 fluorometric assay kit (Bio Vision, CA, USA) as described in the manufacturer's protocol, with some modifications. Briefly, SUM149 (5.0×10^4 cells/mL) and MDA-IBC3 (5.5×10^4 cells/mL) were seeded in 10 cm Petri dishes and transiently transfected with siRNAs as above described. Docetaxel (0.5 nM final concentration) was used as a positive control. Seventy-two hours post-transfection cells were collected, protein extracts were obtained and incubated with the Asp-Glu-Val-Asp (DEVD) peptide substrate—which is conjugated to the 7-amino-4-trifluoromethyl coumarin (AFC)—at 37° C. for 60 min. Releasing of AFC was measured with a fluorometric plate reader (Varioskan LUX, ThermoFisher, USA) at an excitation wavelength of 400 nm and an emission wavelength of 505 nm. The fold-change increase in caspase-3 activity was determined by comparing the release of AFC from the siRNA-transfected cells with the AFC release by the untreated cells.

MCF7-EV cells = assay: Colony formation assay, MCF7-EV cells; assay type: cell-based, human; conditions: 0.1 μM, 1 μM and 10 μM
Procedure: as §1
For cell viability, SUM149 (5.0×10^4 cells/mL) were seeded in 96-well plates. Twenty-four hours later, cells were treated with serial dilutions (0.01 μM, 0.1 μM, 1.0 μM, 10 μM, and 100 μM, final concentrations) of the LCN2 inhibitors. Seventy-two hours after treatment, cell viability was performed as above described, taking the DMSO (1%) treated OD values as the normalization control. […]

increase of caspase-3 activity (Caspase-3) | SMILES | decrease in colony formation (MCF7-LCN2 cells; 0.1 μM) | decrease in colony formation (MCF7-LCN2 cells; 1 μM) | decrease in colony formation (MCF7-LCN2 cells; 10 μM) | cytotoxicity at 10 µM (SUM149 cells [1]) | p-AKT protein levels (p-Akt; 10 μM and 1 μM) | total Akt protein levels (p-Akt) | reduction in number of colonies formed (SUM149 cells [2]; 10 μM) | colony formation (MCF7-EV cells) | p-Akt protein levels (p-Akt; 10 μM and 1 μM, 15 minutes and 1 hour after treatment, vs DMSO) | p-Akt protein levels (p-Akt; 24 hours after treatment) | reduction in number of colonies formed (SUM149 cells [2]; 1 μM)
– | O=C(CN1C(=O)c2cccc3cccc1c23)Nc1ccccc1C(F)(F)F [ZINC00640089] | 24% | 54% | 57% | 35% | reduced p-Akt in a dose-dependent manner; also recorded: reduction | unaltered | 42% | – | – | – | –
two-fold increase | CC(=O)O[C@@]12CO[C@@H]1C[C@H](O)[C@@]1(C)C(=O)[C@H](O)C3=C(C)[C@@H](OC(=O)[C@H](O)[C@@H](NC(=O)OC(C)(C)C)c4ccccc4)C[C@@](O)([C@@H](OC(=O)c4ccccc4)[C@H]21)C3(C)C [Docetaxel] | – | – | – | – | – | – | – | – | – | – | –
– | O=C(NC(Nc1ncccn1)C(=O)c1ccccc1)c1ccccc1 (stereo not drawn) [ZINC00230567] | – | – | – | – | – | – | 62% | – | – | – | –
– | Cc1cc(-c2ccccc2)nc2cc(C(=O)N3CCCc4ccccc43)nn12 [ZINC00829534] | – | – | – | – | – | – | 41% | – | – | – | –
– | CC(=O)c1cccc(Nc2nc(-c3cc4ccccc4oc3=O)cs2)c1 [ZINC00784494] | 23% | 41% | 49% | 57% | reduced p-Akt in a dose-dependent manner | unaltered | 37% | did not cause any effect | reduced | not observed | 43%

— patent US20250073257A1, “SMALL MOLECULE AND SIRNA INHIBITORS AGAINST LIPOCALIN-2” (UNIVERSITY OF PUERTO RICO, priority 2021, published 2025)
